From patent US12227495B2, “Herbicidal compounds” (SYNGENTA CROP PROTECTION AG, priority 2018, dated 2025)

Assays:
Format in all cases: in vivo
Lolium perenne (LOLPE) [1] = assay: Pre-emergence herbicide test, glasshouse, percentage damage; settings: rate 1000 g/ha, evaluated after 13 days
Summary of the method: (§1)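 Spray: acetone/water (50:50) with 0.5% Tween 20, 500 g/ha unless stated; pre-emergence 1 d after sowing, post-emergence at 8 d. Glasshouse 24/16 °C, 14 h light, 65% RH, watered twice daily. Read at 13 d, % damage as 1-5 score.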

Setaria faberi (SETFA) [2] = assay: as above; settings: rate 1000 g/ha, evaluated after 13 days
Summary of the method: as §1

[3] = tested on: Amaranthus retoflexus (AMARE); assay: as above; settings: rate 1000 g/ha, evaluated after 13 days
Summary of the method: as §1

[4] = tested on: Ipomoea hederacea (IPOHE); assay: as above; settings: rate 1000 g/ha, evaluated after 13 days
Summary of the method: as §1

[5] = tested on: Echinochloa crus-galli (ECHCG); assay: as above; settings: rate 1000 g/ha, evaluated after 13 days
Summary of the method: as §1

Solanum nigrum (SOLNI) [6] = assay: as above; settings: rate 1000 g/ha, evaluated after 13 days
Summary of the method: as §1

Lolium perenne (LOLPE) [7] = assay: Post-emergence herbicide test, glasshouse, percentage damage; settings: 1000 g/ha, evaluated after 13 days
Summary of the method: as §1

Setaria faberi (SETFA) [8] = assay: as above; settings: 1000 g/ha, evaluated after 13 days
Summary of the method: as §1

[9] = tested on: Amaranthus retoflexus (AMARE); assay: as above; settings: 1000 g/ha, evaluated after 13 days
Summary of the method: as §1

[10] = tested on: Ipomoea hederacea (IPOHE); assay: as above; settings: 1000 g/ha, evaluated after 13 days
Summary of the method: as §1

[11] = tested on: Echinochloa crus-galli (ECHCG); assay: as above; settings: 1000 g/ha, evaluated after 13 days
Summary of the method: as §1

Solanum nigrum (SOLNI) [12] = assay: as above; settings: 1000 g/ha, evaluated after 13 days
Summary of the method: as §1

| SMILES | Pre-emergence Test LOLPE percentage damage (five point scale) (Lolium perenne (LOLPE) [1]) | Pre-emergence Test SETFA percentage damage (five point scale) (Setaria faberi (SETFA) [2]) | Pre-emergence Test AMARE percentage damage (five point scale) [3] | Pre-emergence Test IPOHE percentage damage (five point scale) [4] | Pre-emergence Test ECHCG percentage damage (five point scale) [5] | Pre-emergence Test SOLNI percentage damage (five point scale) (Solanum nigrum (SOLNI) [6]) | percentage damage caused to the plant, LOLPE (Lolium perenne (LOLPE) [7]) | percentage damage caused to the plant, SETFA (Setaria faberi (SETFA) [8]) | percentage damage caused to the plant, AMARE [9] | percentage damage caused to the plant, IPOHE [10] | percentage damage caused to the plant, ECHCG [11] | percentage damage caused to the plant, SOLNI (Solanum nigrum (SOLNI) [12]) |
| --- | --- | --- | --- | --- | --- | --- | --- | --- | --- | --- | --- | --- |
| Fc1cc(Cl)cnc1Oc1ccccc1-n1ccc(C(F)(F)F)n1 [Compound A121] | 1 (1=0-20%) | 3 (3=41-60%) | 4 (4=61-80%) | 1 (1=0-20%) | 4 (4=61-80%) | 1 (1=0-20%) | 1 (1=0-20%) | 3 (3=41-60%) | 4 (4=61-80%) | 2 (2=21-40%) | 3 (3=41-60%) | 4 (4=61-80%) |
| Fc1cccc(Oc2ncc(C(F)(F)F)cc2Cl)c1-c1cc(C(F)F)no1 [Compound A51] | 1 (1=0-20%) | 1 (1=0-20%) | 1 (1=0-20%) | 1 (1=0-20%) | 1 (1=0-20%) | 1 (1=0-20%) | 1 (1=0-20%) | 1 (1=0-20%) | 4 (4=61-80%) | 1 (1=0-20%) | 1 (1=0-20%) | 5 (5=81-100%) |
| Cc1cccc(Oc2ncc(Cl)cc2F)c1-n1cc(C(F)(F)F)cn1 [Compound A54] | 5 (5=81-100%) | 5 (5=81-100%) | 5 (5=81-100%) | 1 (1=0-20%) | 3 (3=41-60%) | 5 (5=81-100%) | 4 (4=61-80%) | 5 (5=81-100%) | 3 (3=41-60%) | 1 (1=0-20%) | 3 (3=41-60%) | 5 (5=81-100%) |
| Fc1cccc(Oc2ccc(Br)cn2)c1-c1cc(C(F)F)no1 [Compound A41] | 5 (5=81-100%) | 5 (5=81-100%) | 5 (5=81-100%) | 3 (3=41-60%) | 5 (5=81-100%) | 5 (5=81-100%) | 5 (5=81-100%) | 5 (5=81-100%) | 5 (5=81-100%) | 5 (5=81-100%) | 5 (5=81-100%) | 5 (5=81-100%) |
| CS(=O)(=O)c1cnc(Oc2cccc(F)c2-c2cc(C(F)F)no2)c(F)c1 [Compound A39] | 1 (1=0-20%) | 1 (1=0-20%) | 5 (5=81-100%) | 1 (1=0-20%) | 1 (1=0-20%) | 1 (1=0-20%) | 1 (1=0-20%) | 1 (1=0-20%) | 3 (3=41-60%) | 1 (1=0-20%) | 1 (1=0-20%) | 3 (3=41-60%) |
| N#Cc1cccnc1Oc1cccc(F)c1-c1cc(C(F)F)no1 [Compound A49] | 1 (1=0-20%) | 5 (5=81-100%) | 5 (5=81-100%) | 1 (1=0-20%) | 3 (3=41-60%) | 5 (5=81-100%) | 1 (1=0-20%) | 2 (2=21-40%) | 5 (5=81-100%) | 3 (3=41-60%) | 3 (3=41-60%) | 5 (5=81-100%) |
| Cc1cccc(-c2cc(C(F)F)no2)c1Oc1ncc(Cl)cc1F [Compound A94] | 2 (2=21-40%) | 2 (2=21-40%) | 4 (4=61-80%) | 1 (1=0-20%) | 3 (3=41-60%) | 2 (2=21-40%) | 2 (2=21-40%) | 3 (3=41-60%) | 4 (4=61-80%) | 1 (1=0-20%) | 2 (2=21-40%) | 4 (4=61-80%) |
| Fc1cccc(Oc2cccc(C(F)F)n2)c1-c1cc(C(F)F)no1 [Compound A55] | 1 (1=0-20%) | 4 (4=61-80%) | 2 (2=21-40%) | 1 (1=0-20%) | 1 (1=0-20%) | 2 (2=21-40%) | 1 (1=0-20%) | 2 (2=21-40%) | 5 (5=81-100%) | 1 (1=0-20%) | 1 (1=0-20%) | 5 (5=81-100%) |
